In patent publication US9676782B2, “Substituted pyrazolo[1,5-a]pyrazines as negative allosteric modulators of metabotropic glutamate receptor 3” (Vanderbilt University, priority 2014, dated 2017):
Like-named read-outs stand apart in the source and are kept apart here.

Experiments:
rat mGlu5 = rat mGlu5 (Rattus norvegicus (Rat), UniProt P31424); test: mGlu5 Ca2+ flux assay; assay type: cell-based; conditions: for Fold selectivity (mGlu3 vs. mGlu5): ratio of rat mGlu5 EC50 or IC50 to rat mGlu3 IC50; for Emax at 30 µM: read-out: rat mGlu5 Glu max (%)
rat mGlu5, sequence (P31424 21-1203): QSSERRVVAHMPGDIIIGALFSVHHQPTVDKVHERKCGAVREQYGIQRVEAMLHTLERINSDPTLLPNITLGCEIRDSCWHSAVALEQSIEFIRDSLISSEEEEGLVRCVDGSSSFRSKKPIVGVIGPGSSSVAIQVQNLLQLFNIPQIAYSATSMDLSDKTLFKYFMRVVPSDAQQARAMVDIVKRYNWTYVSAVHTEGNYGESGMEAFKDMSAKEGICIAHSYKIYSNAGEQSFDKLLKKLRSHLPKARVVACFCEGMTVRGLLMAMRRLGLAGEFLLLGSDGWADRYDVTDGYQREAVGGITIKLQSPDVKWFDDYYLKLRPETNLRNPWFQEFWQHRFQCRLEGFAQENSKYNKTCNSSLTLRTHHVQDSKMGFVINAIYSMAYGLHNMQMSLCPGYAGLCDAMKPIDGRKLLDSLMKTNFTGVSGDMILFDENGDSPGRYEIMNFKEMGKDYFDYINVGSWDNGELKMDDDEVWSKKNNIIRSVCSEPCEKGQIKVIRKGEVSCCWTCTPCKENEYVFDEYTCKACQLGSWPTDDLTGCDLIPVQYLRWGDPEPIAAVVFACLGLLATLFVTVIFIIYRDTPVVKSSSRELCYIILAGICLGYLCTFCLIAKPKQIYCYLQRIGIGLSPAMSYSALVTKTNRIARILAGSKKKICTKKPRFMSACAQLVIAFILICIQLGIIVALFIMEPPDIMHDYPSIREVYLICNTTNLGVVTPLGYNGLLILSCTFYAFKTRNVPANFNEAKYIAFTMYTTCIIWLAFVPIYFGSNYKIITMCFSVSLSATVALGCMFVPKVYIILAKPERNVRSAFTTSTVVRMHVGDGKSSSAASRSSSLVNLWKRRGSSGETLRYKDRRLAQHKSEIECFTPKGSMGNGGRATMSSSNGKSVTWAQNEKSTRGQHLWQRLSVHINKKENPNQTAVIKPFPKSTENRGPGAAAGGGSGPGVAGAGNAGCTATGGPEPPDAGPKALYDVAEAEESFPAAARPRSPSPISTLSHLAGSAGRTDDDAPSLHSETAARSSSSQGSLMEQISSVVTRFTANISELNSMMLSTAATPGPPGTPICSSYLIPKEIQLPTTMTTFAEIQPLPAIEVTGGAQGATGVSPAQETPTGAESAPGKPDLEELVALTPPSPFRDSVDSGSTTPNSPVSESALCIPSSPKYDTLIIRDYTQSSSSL
Outline: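 Ca2+ flux read kinetically (FDSS7000) after overnight culture at 37° C/5% CO2 and a 5 min room-temperature buffer step following dye removal. Signals expressed per well as F/F0 and normalized to peak glutamate response; EC50 fitted by free 4-parameter logistic, three replicates per concentration equally weighted.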

rat mGlu3 = rat mGlu3 (Rattus norvegicus (Rat), UniProt P31422); test: mGlu3 Ca2+ flux assay; assay type: cell-based; conditions: for remaining activity at 30 µM: amplitude of response at 30 μM test compound as % of maximal response to glutamate, read-out: rat mGlu3 Glu max (%)
rat mGlu3, sequence (P31422 23-879): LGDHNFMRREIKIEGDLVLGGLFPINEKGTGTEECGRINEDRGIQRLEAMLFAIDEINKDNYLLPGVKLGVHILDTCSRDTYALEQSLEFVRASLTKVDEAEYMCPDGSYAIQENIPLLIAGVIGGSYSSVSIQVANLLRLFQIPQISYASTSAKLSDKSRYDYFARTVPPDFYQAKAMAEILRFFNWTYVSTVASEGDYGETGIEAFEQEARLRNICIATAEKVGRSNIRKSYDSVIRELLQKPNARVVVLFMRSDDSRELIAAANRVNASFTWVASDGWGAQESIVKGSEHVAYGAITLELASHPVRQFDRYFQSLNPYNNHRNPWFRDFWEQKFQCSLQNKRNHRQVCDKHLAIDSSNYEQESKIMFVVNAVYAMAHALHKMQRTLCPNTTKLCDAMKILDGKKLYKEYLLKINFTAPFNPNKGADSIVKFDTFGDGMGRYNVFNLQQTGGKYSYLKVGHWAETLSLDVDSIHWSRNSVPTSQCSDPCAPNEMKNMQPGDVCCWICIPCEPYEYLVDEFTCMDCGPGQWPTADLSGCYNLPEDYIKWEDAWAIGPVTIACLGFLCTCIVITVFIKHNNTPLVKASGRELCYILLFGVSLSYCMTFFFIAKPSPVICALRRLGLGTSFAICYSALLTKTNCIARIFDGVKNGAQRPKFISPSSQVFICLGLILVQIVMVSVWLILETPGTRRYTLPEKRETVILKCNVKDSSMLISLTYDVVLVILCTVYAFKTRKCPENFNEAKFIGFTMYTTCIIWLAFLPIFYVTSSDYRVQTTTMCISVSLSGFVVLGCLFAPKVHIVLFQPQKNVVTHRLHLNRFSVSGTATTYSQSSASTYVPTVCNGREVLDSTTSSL
Outline: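 This calcium mobilization assay used rat mGlu3 cells cultured overnight (37° C., 5% CO2) and read on the FDSS7000 after a 10 minute room-temperature incubation in 20 μL assay buffer. Each of 360 readings per well was divided by its initial value (F/F0). Potency came from fitting normalized responses against log concentration with an unconstrained 4 parameter logistic equation, weighting triplicate points equally.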

[1] = read-out: rat mGlu5 EC50 or IC50
[2] = NAM potency, decrease of glutamate EC80 response, >30,000 = no measurable activity, >10,000 = no plateau, read-out: rat mGlu3 IC50
[3] = PAM, amplitude of response at 30 μM test compound as % of maximal response to glutamate
[4] = Table 2 compounds with X = O, response at 30 μM compound as percentage of maximal glutamate response

| SMILES | Fold selectivity (mGlu3 vs. mGlu5) (rat mGlu5) | EC50 (rat mGlu5; [1]) | IC50 (rat mGlu3; [2]) | remaining activity at 30 µM (rat mGlu3) | Emax at 30 µM (rat mGlu5; [3]) | EC50 (rat mGlu5; Table 2 compounds with X = O, read-out: mGlu5 EC50) | mGlu5 Glu max (rat mGlu5; [4]) | IC50 (rat mGlu3; Table 2 compounds with X = O, read-out: mGlu3 IC50) | mGlu3 Glu max (rat mGlu3; [4]) | IC50 (rat mGlu3; read-out: rat mGlu3 IC50) | IC50 (rat mGlu5; compound noted as NAM or partial antagonist (PAnt) at mGlu5, glutamate EC80, read-out: rat mGlu5 EC50 or IC50) | Emax at 30 µM (rat mGlu5; compound noted as NAM or partial antagonist (PAnt) at mGlu5, response at 30 μM as % of maximal glutamate response) |
| --- | --- | --- | --- | --- | --- | --- | --- | --- | --- | --- | --- | --- |
| COc1ccc(N(C)Cc2cc3n(n2)CCN(c2cccc(OC)c2)C3=O)cc1 [Compound 113, 5-(3-methoxyphenyl)-2-(((4-methoxyphenyl)(methyl)amino)methyl)-6,7-dihydropyrazolo[1,5-a]pyrazin-4(5H)-one] | >26 | > 30 µM | 1.12 µM | 0.7% | – | – | – | – | – | – | – | – |
| C[C@@H]1CN(c2ccc(F)cc2)C(=O)c2cc(CNc3cc(F)ccc3F)nn21 [Compound 70, (R)-2-(((2,5-difluorophenyl)amino)methyl)-5-(4-fluorophenyl)-7-methyl-6,7-dihydropyrazolo[1,5-a]pyrazin-4(5H)-one] | >8.7 | > 10 µM | 1.14 µM | 2.67% | 57.5% | – | – | – | – | – | – | – |
| O=C1c2cc(CNc3cccc(Cl)n3)nn2CCN1c1ccc(F)cc1 [Compound 163, 2-(((6-chloropyridin-2-yl)amino)methyl)-5-(4-fluorophenyl)-6,7-dihydropyrazolo[1,5-a]pyrazin-4(5H)-one] | >25 | > 30 µM | 1.18 µM | 1.15% | – | – | – | – | – | – | – | – |
| C[C@@H]1CN(c2ccc(F)cc2)C(=O)c2cc(CNc3cccc(F)c3F)nn21 [Compound 68, (R)-2-(((2,3-difluorophenyl)amino)methyl)-5-(4-fluorophenyl)-7-methyl-6,7-dihydropyrazolo[1,5-a]pyrazin-4(5H)-one] | >8.1 | > 10 µM | 1.23 µM | 2.68% | 53.2% | – | – | – | – | – | – | – |
| C[C@H]1CN(c2ccc(F)cc2)C(=O)c2cc(CNc3ccc(CC#N)cc3)nn21 [Compound 67, (S)-2-(4-(((5-(4-fluorophenyl)-7-methyl-4-oxo-4,5,6,7-tetrahydropyrazolo[1,5-a]pyrazin-2-yl)methyl)amino)phenyl)acetonitrile] | >11 | > 30 µM | 2.56 µM | 1.96% | – | – | – | – | – | – | – | – |
| O=C1c2cc(COc3ccccc3F)nn2CCN1c1ccc(F)cc1 [drawing 30 X = O, reference compound] | – | – | – | – | – | 0.147 µM | 61% | 0.264 µM | 2% | – | – | – |
| Cc1ccnc(NCc2cc3n(n2)CCN(c2ccc(F)cc2)C3=O)c1 [Compound 161, 5-(4-fluorophenyl)-2-(((4-methylpyridin-2-yl)amino)methyl)-6,7-dihydropyrazolo[1,5-a]pyrazin-4(5H)-one] | >8.0 | > 30 µM | 3.75 µM | 1.14% | – | – | – | – | – | – | – | – |
| C[C@H]1CN(c2ccc(F)cc2)C(=O)c2cc(CNc3cccc(F)c3)nn21 [Compound 47, (S)-5-(4-fluorophenyl)-2-(((3-fluorophenyl)amino)methyl)-7-methyl-6,7-dihydropyrazolo[1,5-a]pyrazin-4(5H)-one] | 0.58 | 1.07 µM | – | 1.77% | 78.3% | – | – | – | – | 1.84 µM | – | – |
| CC(C)c1ccc(NCc2cc3n(n2)CCN(c2ccc(F)cc2)C3=O)cc1 [Compound 23, 5-(4-fluorophenyl)-2-(((4-isopropylphenyl)amino)methyl)-6,7-dihydropyrazolo[1,5-a]pyrazin-4(5H)-one] | >3 | > 30 µM | – | 28.9% | – | – | – | – | – | > 10 µM | – | – |
| COc1ccc(N(C)Cc2cc3n(n2)CCN(c2ccc(Cl)cc2F)C3=O)cc1 [Compound 125, 5-(4-chloro-2-fluorophenyl)-2-(((4-methoxyphenyl)(methyl)amino)methyl)-6,7-dihydropyrazolo[1,5-a]pyrazin-4(5H)-one] | >21 | > 30 µM | 1.38 µM | 1.47% | – | – | – | – | – | – | – | – |
| C[C@H]1CN(c2ccc(F)cc2)C(=O)c2cc(CNc3cccc(F)c3F)nn21 [Compound 69, (S)-2-(((2,3-difluorophenyl)amino)methyl)-5-(4-fluorophenyl)-7-methyl-6,7-dihydropyrazolo[1,5-a]pyrazin-4(5H)-one] | 2.59 | 5.75 µM | 2.22 µM | 2.19% | 89.1% | – | – | – | – | – | – | – |
| COc1ccc(N(C)Cc2cc3n(n2)CCN(c2ccc(F)c(Cl)c2)C3=O)cc1 [Compound 133, 5-(3-chloro-4-fluorophenyl)-2-(((4-methoxyphenyl)(methyl)amino)methyl)-6,7-dihydropyrazolo[1,5-a]pyrazin-4(5H)-one] | >24 | > 30 µM | 1.21 µM | 2.13% | – | – | – | – | – | – | – | – |
| O=C1c2cc(CNc3ccc(OC(F)F)cc3F)nn2CCN1c1ccccc1F [Compound 153, 2-(((4-(difluoromethoxy)-2-fluorophenyl)amino)methyl)-5-(2-fluorophenyl)-6,7-dihydropyrazolo[1,5-a]pyrazin-4(5H)-one] | >38 | > 30 µM | 0.772 µM | 2.29% | – | – | – | – | – | – | – | – |
| COc1cc(F)cc(N2CCn3nc(CNc4ccc(OC(F)F)cc4F)cc3C2=O)c1 [Compound 147, 2-(((4-(difluoromethoxy)-2-fluorophenyl)amino)methyl)-5-(3-fluoro-5-methoxyphenyl)-6,7-dihydropyrazolo[1,5-a]pyrazin-4(5H)-one] | >23 | > 30 µM | 1.26 µM | 1.67% | – | – | – | – | – | – | – | – |
| COc1ccc(N(C)Cc2cc3n(n2)CCN(c2ccccc2C#N)C3=O)cc1 [Compound 112, 2-(2-(((4-methoxyphenyl)(methyl)amino)methyl)-4-oxo-6,7-dihydropyrazolo[1,5-a]pyrazin-5(4H)-yl)benzonitrile] | >7.9 | > 30 µM | 3.79 µM | 1.1% | – | – | – | – | – | – | – | – |
| C[C@@H]1CN(c2ccc(F)cc2)C(=O)c2cc(CNc3ccccc3F)nn21 [Compound 42, (R)-5-(4-fluorophenyl)-2-(((2-fluorophenyl)amino)methyl)-7-methyl-6,7-dihydropyrazolo[1,5-a]pyrazin-4(5H)-one] | >11 | > 10 µM | 0.871 µM | 0.89% | 71.4% | – | – | – | – | – | – | – |
| COc1ccc(N(C)Cc2cc3n(n2)CCN(c2c(F)cc(F)cc2F)C3=O)cc1 [Compound 102, 2-(((4-methoxyphenyl)(methyl)amino)methyl)-5-(2,4,6-trifluorophenyl)-6,7-dihydropyrazolo[1,5-a]pyrazin-4(5H)-one] | >37 | > 30 µM | 0.801 µM | 1.68% | – | – | – | – | – | – | – | – |
| O=C1c2cc(CNc3cccc(C(F)(F)F)n3)nn2CCN1c1ccc(F)cc1 [Compound 166, 5-(4-fluorophenyl)-2-(((6-(trifluoromethyl)pyridin-2-yl)amino)methyl)-6,7-dihydropyrazolo[1,5-a]pyrazin-4(5H)-one] | >4.2 | > 10 µM | 2.35 µM | 2.06% | 50.6% | – | – | – | – | – | – | – |
| COc1ccc(N(C)Cc2cc3n(n2)CCN(c2ccc(F)cc2Cl)C3=O)cc1 [Compound 130, 5-(2-chloro-4-fluorophenyl)-2-(((4-methoxyphenyl)(methyl)amino)methyl)-6,7-dihydropyrazolo[1,5-a]pyrazin-4(5H)-one] | >15 | > 30 µM | 1.95 µM | 2.05% | – | – | – | – | – | – | – | – |
| O=C1c2cc(CNc3ccc(Cl)cn3)nn2CCN1c1ccc(F)cc1 [Compound 158, 2-(((5-chloropyridin-2-yl)amino)methyl)-5-(4-fluorophenyl)-6,7-dihydropyrazolo[1,5-a]pyrazin-4(5H)-one] | 4.02 | – | 0.602 µM | 1.27% | – | – | – | – | – | – | 2.42 µM | 73.6% |
